Tests used:
Format in all cases: in vivo
[1] = test system: rice (Oryza sativa); assay: Test B flooded paddy test; conditions: for Plant response rating, Rice: Flood (flooded paddy test), 125 g ai/ha, scale 0 to 100, 0 is no effect, 100 is complete control, 13 to 15 days; for Rice plant response rating: Flood, 31 g ai/ha, scale 0 to 100 (0 no effect, 100 complete control)
Method in brief: (§1)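 Each compound is added to standing floodwater (3 cm above soil, maintained) in pots of 2-leaf-stage plants; greenhouse exposure lasts 13–15 d before visual comparison with controls on a 0–100 control scale.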

[2] = test system: ducksalad (Heteranthera limosa); assay: Test B flooded paddy test; conditions: for Plant response rating, Ducksalad: Flood (flooded paddy test), 125 g ai/ha, scale 0 to 100, 0 is no effect, 100 is complete control, 13 to 15 days; for Ducksalad plant response rating: Flood, 31 g ai/ha, scale 0 to 100 (0 no effect, 100 complete control)
Method in brief: as §1

[3] = test system: barnyardgrass (Echinochloa crus-galli); assay: Test B flooded paddy test; conditions: for Plant response rating, Barnyardgrass: Flood (flooded paddy test), 125 g ai/ha, scale 0 to 100, 0 is no effect, 100 is complete control, 13 to 15 days; for Barnyardgrass plant response rating: Flood, 31 g ai/ha, scale 0 to 100 (0 no effect, 100 complete control)
Method in brief: as §1

[4] = test system: umbrella sedge (Cyperus difformis); assay: Test B flooded paddy test; conditions: for Plant response rating, Sedge, Umbrella: Flood (flooded paddy test), 125 g ai/ha, scale 0 to 100, 0 is no effect, 100 is complete control, 13 to 15 days; for Sedge, Umbrella plant response rating: Flood, 31 g ai/ha, scale 0 to 100 (0 no effect, 100 complete control)
Method in brief: as §1

[5] = test system: velvetleaf (Abutilon theophrasti); assay: Test A pre-/postemergence plant response; conditions: for Velvetleaf plant response rating: visual injury, 0 to 100 scale (0 no effect, 100 complete control), approx. ten days
Method in brief: (§2)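 Each species was treated preemergence via directed soil spray and postemergence at the one- to two-leaf stage, with compounds formulated in a non-phytotoxic solvent plus surfactant. Visual injury relative to untreated controls was rated after about ten days on a 0–100 scale.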

[6] = test system: pigweed (Amaranthus retroflexus); assay: Test A pre-/postemergence plant response; conditions: for Pigweed plant response rating: visual injury, 0 to 100 scale (0 no effect, 100 complete control), approx. ten days
Method in brief: as §2

[7] = test system: corn (Zea mays); assay: Test A pre-/postemergence plant response; conditions: for Corn plant response rating: visual injury, 0 to 100 scale (0 no effect, 100 complete control), approx. ten days
Method in brief: as §2

[8] = test system: giant foxtail (Setaria faberii); assay: Test A pre-/postemergence plant response; conditions: for Foxtail, Giant plant response rating: visual injury, 0 to 100 scale (0 no effect, 100 complete control), approx. ten days
Method in brief: as §2

[9] = test system: large crabgrass (Digitaria sanguinalis); assay: Test A pre-/postemergence plant response; conditions: for Crabgrass, Large plant response rating: visual injury, 0 to 100 scale (0 no effect, 100 complete control), approx. ten days
Method in brief: as §2

[10] = test system: barnyardgrass (Echinochloa crus-galli); assay: Test A pre-/postemergence plant response; conditions: for Barnyardgrass plant response rating: visual injury, 0 to 100 scale (0 no effect, 100 complete control), approx. ten days
Method in brief: as §2

[11] = test system: wheat (Triticum aestivum); assay: Test A pre-/postemergence plant response; conditions: for Wheat plant response rating: visual injury, 0 to 100 scale (0 no effect, 100 complete control), approx. ten days
Method in brief: as §2

[12] = test system: morningglory (Ipomoea spp.); assay: Test A pre-/postemergence plant response; conditions: for Morningglory plant response rating: visual injury, 0 to 100 scale (0 no effect, 100 complete control), approx. ten days
Method in brief: as §2

[13] = Postemergence, 125 g ai/ha, 0 to 100 scale where 0 is no effect and 100 is complete control
[14] = Preemergence, 125 g ai/ha, 0 to 100 scale, 0 = no effect, 100 = complete control
[15] = Preemergence, 500 g ai/ha, 0 to 100 scale, 0 = no effect, 100 = complete control

SMILES | Plant response rating, Rice [1] | Rice plant response rating [1] | Plant response rating, Ducksalad [2] | Ducksalad plant response rating [2] | Plant response rating, Barnyardgrass [3] | Barnyardgrass plant response rating [3] | Plant response rating, Sedge, Umbrella [4] | Sedge, Umbrella plant response rating [4] | Plant response rating, Velvetleaf [5, 13] | Velvetleaf plant response rating ([5]; Postemergence, 500 g ai/ha) | Plant response rating, Velvetleaf [5, 14] | Plant response rating, Velvetleaf [5, 15] | Plant response rating, Pigweed [6, 13] | Pigweed plant response rating ([6]; Postemergence, 500 g ai/ha) | Plant response rating, Pigweed [6, 14] | Plant response rating, Pigweed [6, 15] | Plant response rating, Corn [7, 13] | Corn plant response rating ([7]; Postemergence, 500 g ai/ha) | Plant response rating, Corn [7, 14] | Plant response rating, Corn [7, 15] | further results
COCCOCCn1c(-c2cc(F)cc(F)c2)ncc(C(=O)C2=C(O)CCCC2=O)c1=O [Compound 171] | 0 | 0 | 70 | 40 | 20 | 0 | 80 | 70 | 100 | 100 | 80 | 100 | 100 | 100 | 50 | 80 | 30 | 40 | 0 | 20 | Plant response rating, Foxtail, Giant [8, 13]: 60; Foxtail, Giant plant response rating ([8]; Postemergence, 500 g ai/ha): 90; Plant response rating, Foxtail, Giant [8, 14]: 30; Plant response rating, Foxtail, Giant [8, 15]: 80; Plant response rating, Crabgrass, Large [9, 13]: 60; Crabgrass, Large plant response rating ([9]; Postemergence, 500 g ai/ha): 90; Plant response rating, Crabgrass, Large [9, 14]: 70; Plant response rating, Crabgrass, Large [9, 15]: 100; Plant response rating, Barnyardgrass [10, 13]: 50; Barnyardgrass plant response rating ([10]; Postemergence, 500 g ai/ha): 90; Plant response rating, Barnyardgrass [10, 14]: 20; Plant response rating, Barnyardgrass [10, 15]: 70; Plant response rating, Wheat [11, 13]: 20; Wheat plant response rating ([11]; Postemergence, 500 g ai/ha): 50; Plant response rating, Wheat [11, 14]: 20; Plant response rating, Wheat [11, 15]: 40; Plant response rating, Morningglory [12, 13]: 100; Morningglory plant response rating ([12]; Postemergence, 500 g ai/ha): 100; Plant response rating, Morningglory [12, 14]: 0; Plant response rating, Morningglory [12, 15]: 60
CCc1ccc(-n2c(-c3cccc(Cl)c3)ncc(C(=O)C3=C(O)CCCC3=O)c2=O)cc1 [Compound 174] | 0 | 0 | 95 | 80 | 0 | 0 | 95 | 85 | 100 | 100 | 20 | 70 | 100 | 100 | 30 | 90 | 10 | 20 | 10 | 20 | Plant response rating, Foxtail, Giant [8, 13]: 20; Foxtail, Giant plant response rating ([8]; Postemergence, 500 g ai/ha): 60; Plant response rating, Foxtail, Giant [8, 14]: 0; Plant response rating, Foxtail, Giant [8, 15]: 40; Plant response rating, Crabgrass, Large [9, 13]: 70; Crabgrass, Large plant response rating ([9]; Postemergence, 500 g ai/ha): 90; Plant response rating, Crabgrass, Large [9, 14]: 20; Plant response rating, Crabgrass, Large [9, 15]: 60; Plant response rating, Barnyardgrass [10, 13]: 90; Barnyardgrass plant response rating ([10]; Postemergence, 500 g ai/ha): 100; Plant response rating, Barnyardgrass [10, 14]: 0; Plant response rating, Barnyardgrass [10, 15]: 40; Plant response rating, Wheat [11, 13]: 0; Wheat plant response rating ([11]; Postemergence, 500 g ai/ha): 0; Plant response rating, Wheat [11, 14]: 0; Plant response rating, Wheat [11, 15]: 0; Plant response rating, Morningglory [12, 13]: 30; Morningglory plant response rating ([12]; Postemergence, 500 g ai/ha): 60; Plant response rating, Morningglory [12, 14]: 0; Plant response rating, Morningglory [12, 15]: 0
